According to patent publication US20250064886A1, “CARDIOVASCULAR AND CEREBROVASCULAR DRUG AND USE THEREOF” (HANGZHOU ADAMERCK PHARMLABS INC., priority 2021, published 2025):
Marks after values point to notes of the source that are not given here.

Columns and labels:
GPX4 mRNA = GPX4 mRNA expression (real time PCR) in Erastin-induced neuronal cells (Example 8); format: cell-based, rat; conditions: Erastin 50 μM
Protocol: (§1) Experimental method: Primary neuron cells were incubated in a medium containing Erastin (final concentration of 50 μM) for 24 hours, and then incubated in a medium containing different concentrations of the test drug and Erastin (final concentration of 50 μM) for another 24 hours. After incubation, Real time PCR was used to detect mRNA expression of GPX4 in each group of cells, CCK8 assay was used to detect cell viability in each group of cells, C11-BODIPY probe method was used to detect intracellular lipid ROS levels in each group of cells, and PGSK probe method was used to detect iron content in cells.
(§2) The experimental data were expressed in means±SD, and statistical differences between groups were determined using one-way ANOVA and Tukey's test, with p-values less than 0.05 considered significant.
After incubation, real time PCR was used to detect the mRNA expression of GPX4 in each group of cells. The results were presented as Mean±SD. Compared with the control group, ***p<0.0001; Compared with the model group, #p<0.05, […].

[1] = test system: vascular inflammation in high-glucose and high-fat zebrafish; assay: Regressive effect on vascular inflammation in high-glucose and high-fat zebrafish (Example 9); format: in vivo
Protocol: Experimental method: 360 tails of 5 dpf macrophage fluorescent zebrafish were randomly selected and placed in beakers with 30 tails in each beaker, compound (1), compound (3), and compound (5) were given intravenously, and the positive control group was given atorvastatin calcium by dissolving it in water at a concentration of 30 μg/mL, while the normal control group (fish farming water-treated zebrafish) and the model control group were set up, and the volume of each beaker (experimental group) was 25 mL. Except for the normal control group, all other groups were given high-lipids and high-sucrose feed by dissolving it in water. Compound (1), compound (3) and compound (5) group were co-treated with high-lipids and high-sucrose feed for 30 h. The treatment was carried out up to 9 dpf, and 10 zebrafish were randomly selected from each experimental group to collect the intensity of the macrophage fluorescence within the tail vein and around the tail vein of the zebrafish under fluorescence microscope, and the results of the statistical analysis were used to evaluate the regressive effect of compound (1), compound (3), compound (5) on zebrafish vascular inflammation in the high sugar and high fat model.

[2] = test system: iron content in Erastin-induced neuronal cells; assay: Iron content (PGSK probe) in Erastin-induced neuronal cells (Example 8); format: cell-based, rat; conditions: Erastin 50 μM
Protocol: as §1, §2
After incubation, the PGSK probe method was used to detect the intracellular iron content. The results were presented as Mean±SD. Compared with the control group, ***p<0.0001; Compared with the model group, #p<0.05, ##p<0.01.

[3] = test system: rats with focal cerebral ischemia (MCAO)/reperfusion; assay: Preventative administration, cerebral ischemia-reperfusion injury MCAO/R in rats (Example 5); format: in vivo, rat; conditions: preventative; for Cerebral infarction rate (%): tail vein 3 days
Protocol: Experimental method: SD rats were randomly divided into six groups, i.e., pseudosurgery group, model control group, positive control drug ozagre (6 mg/kg) group, and administration drug compound (1) high-dose (67.5 mg/kg) group, medium-dose (22.5 mg/kg) group, and low-dose (7.5 mg/kg) group. The administration group was pre-administered via tail vein injection, while the pseudosurgery group and model control group were given equal volumes of physiological saline once a day for 3 consecutive days. 10 minutes after the last administration, a rat MCAO/R model was established and performed reperfusion 2 hours post ischemia. 24 hours after MCAO reperfusion, the neurobehavioral scores of rats were performed to determine their neurological function; the cerebral infarction rate and cerebral water content in rats were determined using 2,3,5-triphenyltetrazolium chloride (TTC) staining method.

[4] = test system: cerebral ischemic injury in rats caused by autologous thrombus and thrombin; assay: Ischemic brain injury in rats caused by autologous thrombus and thrombin (Example 6); format: in vivo, rat
Protocol: The drug was administered once by slow tail vein injection (1 ml per minute) 2 h after modeling, and the decrease in blood flow was monitored after the injection of thrombin, and 120 min after the administration of the drug. Neurobehavioral scoring was performed to determine the neurological function of rats after 24 h. The cerebral infarction rate and cerebral water content of rats were determined using 2,3,5-triphenyltetrazolium chloride (TTC) staining method, and the pathological damage of the brain of rats administered with drug 2 h after cerebral ischemia was observed by hematoxylin-eosin (HE) staining.

[5] = test system: vascular endothelial-injury thrombosis model in zebrafish; assay: Preventative effect of compound (1) on vascular endothelial injury induced thrombosis in zebrafish (Example 3); format: in vivo; conditions: for Cardiac erythrocyte staining intensity (pixels, mean ± SE): n = 10
Protocol: Experimental method: Wild-type AB strain zebrafish were treated with 4 μg/mL punatinib for 18 h to establish vascular endothelial-injury thrombosis model in zebrafish. 150 of 5 dpf wild-type AB strain zebrafish were randomly selected and placed in six-well plates with 30 fish per well (experimental group). The zebrafish were injected with compound (1) at a dose of 2.06 ng/tail, and 6.18 ng/tail, and the positive control drug acetylsalicylic acid was given by dissolving it in water with a concentration of 30 µg/mL, while the normal control group (i.e., zebrafish treated with standard dilution water) and the model control group were set up, and the volume of each well (experimental group) was 3 mL. Except for normal control group, the remaining experimental groups were all given Punatinib by dissolving it in water to induce vascular endothelial injury thrombosis model in zebrafish. The zebrafish were co-treated with compound (1) and punatinib for a period of time under incubation condition at 28° C., and then stained with o-dianisidine. After staining, 10 zebrafish were randomly selected from each group and photographed under the microscope. The intensity of cardiac erythrocyte staining in zebrafish was analyzed using NIS-Elements D 3.10 advanced image-processing software, and the preventative effect of compound (I) on vascular endothelial injury thrombosis was evaluated based on the statistical results of cardiac erythrocyte staining intensity. The preventative effect on thrombosis is calculated as follows: […]
Statistical analysis were performed using Analysis of Variance and Dunnett's t-test, and p<0.05 indicates a significant difference, providing a representative experimental plot.

For CC(=O)N[C@H](CSCC1OC2OC3C(CSC[C@@H](NC(C)=O)C(=O)[O-])OC(OC4C(CSC[C@@H](NC(C)=O)C(=O)[O-])OC(OC5C(CSC[C@@H](NC(C)=O)C(=O)[O-])OC(OC6C(CSC[C@@H](NC(C)=O)C(=O)[O-])OC(OC7C(CSC[C@@H](NC(C)=O)C(=O)[O-])OC(OC8C(CSC[C@@H](NC(C)=O)C(=O)[O-])OC(OC9C(CSC[C@@H](NC(C)=O)C(=O)[O-])OC(OC1C(O)C2O)C(O)C9O)C(O)C8O)C(O)C7O)C(O)C6O)C(O)C5O)C(O)C4O)C(O)C3O)C(=O)[O-].[Na+].[Na+].[Na+].[Na+].[Na+].[Na+].[Na+].[Na+] (stereo partly drawn) [Compound (1)], the “Expression of GPX4 mRNA” value (GPX4 mRNA; 1 μM, control about 1.00, Mean±SD) was 0.4845 ± 0.06^, the “Expression of GPX4 mRNA” value (GPX4 mRNA; 2.5 μM) was 0.5759 ± 0.07^ and the “Expression of GPX4 mRNA” value (GPX4 mRNA; 5 μM) was 0.6469 ± 0.08^#. The “Expression of GPX4 mRNA” value (GPX4 mRNA; 10 μM) was 0.7093 ± 0.15^##, the “Expression of GPX4 mRNA” value (GPX4 mRNA; 20 μM) was 0.7664 ± 0.08^## and the “Expression of GPX4 mRNA” value (GPX4 mRNA; 40 μM) was 0.8503 ± 0.06^##. For the same compound, the “Anti-inflammatory effect (%)” value ([1]; 222 ng/tail intravenous) was 27*** %, the “Fluorescence intensity of perivascular macrophage (pixels, Mean ± SE)” value (from here on “Fluorescence intensity … (pixels, Mean ± SE)”) ([1]; 222 ng/tail intravenous) was 134308 ± 6117 pixels and the “Anti-inflammatory effect (%)” value ([1]; 667 ng/tail intravenous) was 37*** %. The “Fluorescence intensity … (pixels, Mean ± SE)” value ([1]; 667 ng/tail intravenous) was 116848 ± 5036 pixels, the “Anti-inflammatory effect (%)” value ([1]; 2000 ng/tail intravenous) was 41*** % and the “Fluorescence intensity … (pixels, Mean ± SE)” value ([1]; 2000 ng/tail intravenous) was 108154 ± 4723 pixels. The “Iron content (PGSK probe)” value ([2]; 1 μM, control = 100, PGSK fluorescence, weaker = more iron) was 61.06 ± 7.12, the “Iron content (PGSK probe)” value ([2]; 2.5 μM) was 66.81 ± 7.21 and the “Iron content (PGSK probe)” value ([2]; 5 μM) was 71.85 ± 4.47. The “Iron content (PGSK probe)” value ([2]; 10 μM) was 77.52 ± 12.88^#, the “Iron content (PGSK probe)” value ([2]; 20 μM) was 82.16 ± 6.86^## and the “Iron content (PGSK probe)” value ([2]; 40 μM) was 86.69 ± 8.01^##. The “Cerebral infarction rate (%)” value ([3]; 7.5 mg/kg (low-dose)) was 15.18 ± 4.74 %, the Behavioral score ([3]; 7.5 mg/kg) was 2.00 ± 1.07 and the “Cerebral water content (%)” value ([3]; 7.5 mg/kg) was 80.16 ± 1.03%. The “Cerebral infarction rate (%)” value ([3]; 22.5 mg/kg (medium-dose)) was 13.93 ± 6.99 %, the Behavioral score ([3]; 22.5 mg/kg) was 1.87 ± 0.64 and the “Cerebral water content (%)” value ([3]; 22.5 mg/kg) was 79.01 ± 1.27 %. For the same compound, the “Cerebral infarction rate (%)” value ([3]; 67.5 mg/kg (high-dose)) was 12.28 ± 10.29 %, the Behavioral score ([3]; 67.5 mg/kg) was 1.50 ± 0.53 and the “Cerebral water content (%)” value ([3]; 67.5 mg/kg) was 78.23 ± 1.84 %. For the same compound, the “Cerebral blood flow: Percentage decrease after injection of thrombin (%)” value ([4]; 22.5 mg/kg group, value before administration, mean ± SD, n = 10) was 43.67 ± 7.17%, the “Cerebral infarction rate (%)” value ([4]; 22.5 mg/kg i.v.) was 13.91 ± 10.78 % and the “Cerebral water content (%)” value ([4]; 22.5 mg/kg i.v.) was 79.93 ± 1.98 %. The “Cerebral blood flow: Percentage decrease two hours after administration (%)” value ([4]; 22.5 mg/kg i.v. once 2 h after modeling) was 27.14 ± 6.38 %, the Pathological damage score ([4]; 22.5 mg/kg i.v., HE staining, mean ± SD, n = 10) was 1.90 ± 1.10 and the Behavioral score ([4]; 22.5 mg/kg i.v., after 24 h) was 1.60 ± 0.70. For the same compound, the “Thromboprophylactic effect (%)” value ([5]; 2.06 ng/tail) was 83%, the “Cardiac erythrocyte staining intensity (pixels, mean ± SE)” value ([5]; 2.06 ng/tail) was 4601 ± 265 pixels and the “Cardiac erythrocyte staining intensity (pixels, mean ± SE)” value ([5]; 2.06 ng/tail, listed as compound (1)) was 4601 pixels. The “Thromboprophylactic effect (%)” value ([5]; 6.18 ng/tail) was 99%, the “Cardiac erythrocyte staining intensity (pixels, mean ± SE)” value ([5]; 6.18 ng/tail) was 5044 ± 345 pixels and the “Cardiac erythrocyte staining intensity (pixels, mean ± SE)” value ([5]; 6.18 ng/tail, listed as compound (1)) was 5044 pixels.
